The subject of assay [1] is differentiated L6-myotubes. Nature of the assay: Glucose uptake screen (Biological example 1 of WO 2019/053427). It counts as cell-based. As to conditions: compound at 10 μM, activity relative to isoproterenol at 10 μM, read-out: Biological example 1 of WO 2019/053427 (GU). A digest of the protocol:
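Uptake was read out as ^3H-2-deoxyglucose (50 nM, 10 min) radioactivity in NaOH lysates. Beforehand, overnight-starved, differentiated L6 myotubes received compound at 1×10^−5 M with ICI-118551 present for 1 h 40 min, followed by fresh agonist for a further 20 min in glucose-free medium.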

For assay [2], the system named is differentiated L6-myotubes. Nature of the assay: cAMP production relative to isoprenaline (Biological example 2 of WO 2019/053427). It counts as cell-based. As to conditions: 0.25 h, compound at 10 μM, activity relative to isoproterenol at 10 μM. A digest of the protocol: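 Values are cAMP levels relative to isoprenaline at equal concentration (final 1×10^−5 M for both). Stimulation lasted 15 min in differentiated L6 myotubes, using HBSS buffer (pH 7.4) containing 1 mM IBMX, 5 mM HEPES and 1% BSA.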
(Cyclic AMP is a second messenger, typically raised through Gs and lowered through Gi signalling.)

The values below come from patent US20260256751A1, “COMBINATION OF BETA-2-ADRENERGIC RECEPTOR AGONISTS AND GLP-1 RECEPTOR AGONISTS FOR USE IN TREATING HYPERGLYCAEMIA” (ATROGI AB, priority 2023, published 2026).

Bounds are passed on as bounds.

For the compound `CC1(C)C[C@H]([C@@H](O)c2cccc(Cl)c2)N1` [Compound 233, (S)-[(R)-4,4-dimethyl-2-azetidinyl](m-chlorophenyl)methanol], the Emax at 10 µM in assay [1] and in assay [2] was below 25% throughout.

Regarding `CCC[C@H]1CCCC[C@@H]([C@H](O)c2cncc(F)c2)N1` [Compound 234, (R)-[(2S,7S)-7-propyl-2-azepanyl](5-fluoro-3-pyridyl)methanol], the values for the Emax at 10 µM in assay [1] and in assay [2] were above 75% and below 25%, respectively.

Consider `CCC[C@H]1CCCC[C@@H]([C@@H](O)c2cncc(F)c2)N1` [Compound 235, (S)-[(2S,7S)-7-propyl-2-azepanyl](5-fluoro-3-pyridyl)methanol], for which the Emax at 10 µM in assay [1] and in assay [2] was below 25% throughout.

`CC1(C)CC[C@H]([C@@H](O)c2cc(F)c(N)c(F)c2)N1` [Compound 236, (S)-[(R)-5,5-dimethyl-2-pyrrolidinyl](4-amino-3,5-difluorophenyl)methanol]: the Emax at 10 µM in assay [1] was above 75%; in assay [2] it was 25 to 50%.

Regarding `CO[C@H]1CC[C@@H](CCNC[C@H](O)c2cccc(F)c2)CC1` [Compound 237, (R)-1-(m-fluorophenyl)-2-{2-[(1s,4S)-4-methoxycyclohexyl]ethyl-amino}-1-ethanol], the values for the Emax at 10 µM in assay [1] and in assay [2] were 50 to 75% and below 25%, respectively.

For the compound `CO[C@H]1CC[C@@H](CCNC[C@H](O)c2cncc(F)c2)CC1` [Compound 238, (R)-1-(5-fluoro-3-pyridyl)-2-{2-[(1s,4S)-4-methoxycyclohexyl]ethyl-amino}-1-ethanol], the results for the Emax at 10 µM in assay [1] and in assay [2] were above 75% and below 25%, respectively.

`CO[C@H]1CC[C@H](C(C)(C)NC[C@H](O)c2cccc(F)c2)CC1` [Compound 239, (R)-1-(m-fluorophenyl)-2-{1-methyl-1-[(1r,4R)-4-methoxycyclohexyl]ethyl-amino}-1-ethanol]: the Emax at 10 µM was above 75% in assay [1] and below 25% in assay [2].

Take `CO[C@H]1CC[C@H](C(C)(C)NC[C@H](O)c2cncc(F)c2)CC1` [Compound 240, (R)-1-(5-fluoro-3-pyridyl)-2-{1-methyl-1-[(1r,4R)-4-methoxycyclohexyl]ethyl-amino}-1-ethanol]: the figures for the Emax at 10 µM in assay [1] and in assay [2] were above 75% and below 25%, respectively.

Consider `CC12CC(C1)[C@H]([C@H](O)c1cccc(N)c1F)N2` [Compound 241, (R)-{(R)-1-methyl-2-azabicyclo[2.1.1]hex-3-yl}(3-amino-2-fluorophenyl)methanol], for which the values for the Emax at 10 µM in assay [1] and in assay [2] were above 75% and below 25%, respectively.

Take `CC12CC(C1)[C@@H]([C@@H](O)c1cccc(N)c1F)N2` [Compound 242, (S)-{(S)-1-methyl-2-azabicyclo[2.1.1]hex-3-yl}(3-amino-2-fluorophenyl)methanol]: the Emax at 10 µM in assay [1] is 50 to 75%; in assay [2], below 25%.

For `CC12CC(C1)[C@H]([C@@H](O)c1cccc(N)c1F)N2` [Compound 243, (S)-{(R)-1-methyl-2-azabicyclo[2.1.1]hex-3-yl}(3-amino-2-fluorophenyl)methanol], the Emax at 10 µM in assay [1] was 50 to 75%; in assay [2], below 25%.

As to `CC12CC(C1)[C@@H]([C@H](O)c1cccc(N)c1F)N2` [Compound 244, (R)-{(S)-1-methyl-2-azabicyclo[2.1.1]hex-3-yl}(3-amino-2-fluorophenyl)methanol], the Emax at 10 µM is 50 to 75% in assay [1] and below 25% in assay [2].

In the case of `CO[C@H]1CC[C@@H](CNC[C@H](O)c2cccc(F)c2)CC1` [Compound 245, (R)-1-(m-fluorophenyl)-2-({[(1s,4S)-4-methoxycyclohexyl]meth-yl}amino)-1-ethanol], the Emax at 10 µM is 50 to 75% in assay [1] and below 25% in assay [2].

Regarding `CO[C@H]1CC[C@@H](CNC[C@H](O)c2cncc(F)c2)CC1` [Compound 246, (R)-1-(5-fluoro-3-pyridyl)-2-({[(1s,4S)-4-methoxycyclohexyl]meth-yl}amino)-1-ethanol], the Emax at 10 µM in assay [1] is 50 to 75%; in assay [2], below 25%.

Turning to `CO[C@H]1CC[C@@H](CC(C)(C)NC[C@H](O)c2cccc(F)c2)CC1` [Compound 247, (R)-2-{1,1-dimethyl-2-[(1s,4S)-4-methoxycyclohexyl]ethyl-amino}-1-(m-fluorophenyl)-1-ethanol], the Emax at 10 µM in assay [1] was above 75%; in assay [2] it was below 25%.

On to `CO[C@H]1CC[C@@H](CC(C)(C)NC[C@H](O)c2cncc(F)c2)CC1` [Compound 248, (R)-2-{1,1-dimethyl-2-[(1s,4S)-4-methoxycyclohexyl]ethyl-amino}-1-(5-fluoro-3-pyridyl)-1-ethanol], for which the Emax at 10 µM was above 75% in assay [1] and below 25% in assay [2].

Regarding `CO[C@H]1CC[C@H](CC(C)(C)NC[C@H](O)c2cccc(F)c2)CC1` [Compound 249, (R)-2-{1,1-dimethyl-2-[(1r,4R)-4-methoxycyclohexyl]ethyl-amino}-1-(m-fluorophenyl)-1-ethanol], the Emax at 10 µM is above 75% in assay [1] and below 25% in assay [2].

Turning to `CO[C@H]1CC[C@H](CC(C)(C)NC[C@H](O)c2cncc(F)c2)CC1` [Compound 250, (R)-2-{1,1-dimethyl-2-[(1r,4R)-4-methoxycyclohexyl]ethyl-amino}-1-(5-fluoro-3-pyridyl)-1-ethanol], the Emax at 10 µM in assay [1] is 50 to 75%; in assay [2], below 25%.

For `CO[C@H]1CC[C@@H](C(C)(C)NC[C@H](O)c2cccc(F)c2)CC1` [Compound 251, (R)-1-(m-fluroophenyl)-2-{1-methyl-1-[(1s,4S)-4-methoxycyclohexyl]ethyl-amino}-1-ethanol], the Emax at 10 µM in assay [1] and in assay [2] was below 25% each time.

Regarding `CO[C@H]1CC[C@@H](C(C)(C)NC[C@H](O)c2cncc(F)c2)CC1` [Compound 252, (R)-1-(5-fluoro-3-pyridyl)-2-{1-methyl-1-[(1s,4S)-4-methoxycyclohexyl]ethyl-amino}-1-ethanol], the Emax at 10 µM in assay [1] and in assay [2] was below 25% throughout.

Consider `CC12CCC([C@@H](O)c3ccncc3F)(CC1)N2` [Compound 253, (S)-(3-fluoro-4-pyridyl)(4-methyl-7-azabicyclo[2.2.1]hept-1-yl)methanol], for which the Emax at 10 µM in assay [1] and in assay [2] was below 25% each time.

Take `CC12CCC([C@H](O)c3ccncc3F)(CC1)N2` [Compound 254, (R)-(3-fluoro-4-pyridyl)(4-methyl-7-azabicyclo[2.2.1]hept-1-yl)methanol]: the Emax at 10 µM in assay [1] and in assay [2] was below 25% throughout.

With `CO[C@@H]1CCC[C@H](C(C)(C)NC[C@H](O)c2cccc(F)c2)C1` [Compound 255, (R)-2-{1-[(1S,3R)-3-methoxycyclohexyl]-1-methylethylamino}-1-(m-fluorophenyl)-1-ethanol], the results for the Emax at 10 µM in assay [1] and in assay [2] were above 75% and below 25%, respectively.

For `CO[C@H]1CCC[C@@H](C(C)(C)NC[C@H](O)c2cccc(F)c2)C1` [Compound 256], the Emax at 10 µM in assay [1] was above 75%; in assay [2] it was 25 to 50%.

In the case of `CO[C@@H]1CCC[C@H](C(C)(C)NC[C@H](O)c2cncc(F)c2)C1` [Compound 257, (R)-2-{1-[(1S,3R)-3-methoxycyclohexyl]-1-methylethylamino}-1-(5-fluoro-3-pyridyl)-1-ethanol], the Emax at 10 µM is 50 to 75% in assay [1] and below 25% in assay [2].

For the compound `CO[C@H]1CC[C@@H](CCCNC[C@H](O)c2cccc(F)c2)CC1` [Compound 258, (R)-1-(m-fluorophenyl)-2-{3-[(1s,4R)-4-methoxycyclohexyl]propyl-amino}-1-ethanol], the values for the Emax at 10 µM in assay [1] and in assay [2] were above 75% and 50 to 75%, respectively.

For `CO[C@H]1CC[C@H](CCCNC[C@H](O)c2cccc(F)c2)CC1` [Compound 259, (R)-1-(m-fluorophenyl)-2-{3-[(1r,4S)-4-methoxycyclohexyl]propyl-amino}-1-ethanol], the values for the Emax at 10 µM in assay [1] and in assay [2] were 25 to 50% and below 25%, respectively.

For `CO[C@H]1CC[C@@H](CCCNC[C@H](O)c2cncc(F)c2)CC1` [Compound 260, (R)-1-(5-fluoro-3-pyridyl)-2-{3-[(1s,4R)-4-methoxycyclohexyl]propyl-amino}-1-ethanol], the Emax at 10 µM in assay [1] was above 75%; in assay [2], below 25%.

As for `CO[C@H]1CC[C@H](CCCNC[C@H](O)c2cncc(F)c2)CC1` [Compound 261, (R)-1-(5-fluoro-3-pyridyl)-2-{3-[(1r,4S)-4-methoxycyclohexyl]propyl-amino}-1-ethanol], the Emax at 10 µM in assay [1] and in assay [2] was below 25% throughout.

With `O[C@@H](CNC[C@H]1CC[C@@H](OCc2ccccc2)CC1)c1cccc(F)c1` [Compound 262, (R)-1-(m-fluorophenyl)-2-({[(1s,4S)-4-(benzyloxy)cyclohexyl]methyl}amino)-1-ethanol], the Emax at 10 µM was 25 to 50% in assay [1] and below 25% in assay [2].

As to `O[C@@H](CNC[C@H]1CC[C@@H](OCc2ccccc2)CC1)c1cncc(F)c1` [Compound 263, (R)-1-(5-fluoro-3-pyridyl)-2-({[(1s,4S)-4-(benzyloxy)cyclohexyl]methyl}amino)-1-ethanol], the Emax at 10 µM in assay [1] was above 75%; in assay [2], below 25%.

In the case of `CO[C@H]1CC[C@@H](CCC(C)(C)NC[C@H](O)c2cccc(F)c2)CC1` [Compound 264, (R)-2-{1,1-dimethyl-3-[(1s,R)-4-methoxycyclohexyl]propyl-amino}-1-(m-fluorophenyl)-1-ethanol], the Emax at 10 µM in assay [1] was above 75%; in assay [2], 25 to 50%.
